Here are results for 28 compounds from patent US20230024302A1, “2,3,5-TRISUBSTITUTED PYRAZOLO[1,5-A]PYRIMIDINE COMPOUNDS” (Arcus Biosciences, Inc., priority 2019, published 2023).

Like-named read-outs stand apart in the source and are kept apart here.

One assay concerns the target T1, PI3Kγ (p120γ) (Homo sapiens, UniProt P48736).
T1 construct: purchased Promega V1761
Put plainly: Inhibition of PI3K kinase activity (ADP Glo), PI3Kγ. The conditions noted are these: read-out: biochemical potency (PI3Kγ IC50). The method in brief:
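Recombinant p120γ (8 nM, 2× stock) was preincubated with compound for 1 h at rt in HEPES pH 7.4, NaCl, MgCl2 and 0.05% BSA. Reaction was started with PIP2 (0.1 mg/ml, 2×) and ATP (50 μM, 2×) and ran 60 min at rt. ADP formed was read by ADP-Glo luminescence, and IC50 came from a 4-parameter fit.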

In the next assay the target is T2, PI3Kγ (Homo sapiens, UniProt P48736).
T2 construct: host or cells: THP-1
T2 sequence (P48736 whole entry): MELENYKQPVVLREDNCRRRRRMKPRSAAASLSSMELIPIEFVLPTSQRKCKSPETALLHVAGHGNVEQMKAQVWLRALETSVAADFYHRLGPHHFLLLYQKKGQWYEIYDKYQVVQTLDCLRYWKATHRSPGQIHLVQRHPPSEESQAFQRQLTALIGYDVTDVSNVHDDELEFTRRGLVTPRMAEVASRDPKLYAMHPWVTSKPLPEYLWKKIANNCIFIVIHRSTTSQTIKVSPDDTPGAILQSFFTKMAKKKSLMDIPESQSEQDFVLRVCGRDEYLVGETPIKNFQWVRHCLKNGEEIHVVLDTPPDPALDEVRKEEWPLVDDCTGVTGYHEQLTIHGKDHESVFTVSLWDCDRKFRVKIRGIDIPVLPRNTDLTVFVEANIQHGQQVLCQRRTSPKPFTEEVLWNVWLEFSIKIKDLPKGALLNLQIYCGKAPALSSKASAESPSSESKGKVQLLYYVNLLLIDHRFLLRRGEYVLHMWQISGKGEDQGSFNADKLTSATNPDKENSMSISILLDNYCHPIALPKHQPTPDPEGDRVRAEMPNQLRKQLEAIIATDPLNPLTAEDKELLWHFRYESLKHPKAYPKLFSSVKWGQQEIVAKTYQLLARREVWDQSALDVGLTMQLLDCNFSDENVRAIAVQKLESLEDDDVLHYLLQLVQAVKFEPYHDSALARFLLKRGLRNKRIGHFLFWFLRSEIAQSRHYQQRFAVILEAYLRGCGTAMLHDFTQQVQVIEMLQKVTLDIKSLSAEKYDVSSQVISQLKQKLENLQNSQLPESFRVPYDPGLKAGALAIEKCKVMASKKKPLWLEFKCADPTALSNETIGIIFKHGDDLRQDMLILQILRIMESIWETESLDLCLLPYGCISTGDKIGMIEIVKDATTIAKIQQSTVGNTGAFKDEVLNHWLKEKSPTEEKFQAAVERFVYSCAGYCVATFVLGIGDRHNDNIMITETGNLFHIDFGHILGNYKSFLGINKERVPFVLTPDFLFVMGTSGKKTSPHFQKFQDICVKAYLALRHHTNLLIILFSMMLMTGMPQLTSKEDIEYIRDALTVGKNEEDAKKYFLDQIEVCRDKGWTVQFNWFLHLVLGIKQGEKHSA
Put plainly: PI3Kγ cellular assay in THP-1 cells (AKT pS473 AlphaLISA). It counts as cell-based. The method in brief:
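Serum-starved THP-1 cells (1.8×10^5/well, serum-free DMEM) treated with compounds from 4 nM to 30 μM in 2% DMSO, then stimulated and lysed.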

Where [1] appears, read: Table 2, rhMCP-1 stimulated AKT pS473, read-out: cellular potency (PI3Kγ IC50).
Where [2] appears, read: Table 1, rhMCP-1 stimulated AKT pS473, read-out: cellular potency (PI3Kγ IC50).
[3] abbreviates: Table 6, rhMCP-1 stimulated AKT pS473, read-out: cellular potency (PI3Kγ IC50).
Setting [4] is: Table 3, rhMCP-1 stimulated AKT pS473, read-out: cellular potency (PI3Kγ IC50).
[5] abbreviates: AKT pS473, read-out: cellular potency (PI3Kγ IC50).

T1 sequence (P48736 whole entry): as above

Broadly, the IC50 is the midpoint of a concentration-inhibition curve. In the case of `Cc1cc(-c2ccn3nc(N)c(C(=O)NC4CC4)c3n2)cc2c1C(=O)N([C@H]1CC[C@@H](O)C1)C2` [Example 322], the IC50 on PI3Kγ (p120γ) (Table 2, p120γ) is under 100 nM; at PI3Kγ (setting [1]), 100 to 1000 nM.

Take `C[C@@H](C1CC1)N1Cc2cc(-c3ccn4nc(N)c(C(=O)Nc5cccnc5)c4n3)cc(NS(C)(=O)=O)c2C1=O` [Example 99, (S)-2-Amino-5-(2-(1-cyclopropylethyl)-7-(methylsulfonamido)-1-oxoisoindolin-5-yl)-N-(pyridin-3-yl)pyrazolo[1,5-a]pyrimidine-3-carboxamide]: the IC50 at PI3Kγ (p120γ) (Table 1, p120γ) is under 100 nM; on PI3Kγ (setting [2]) it was under 100 nM.

For `Cc1cc(-c2ccn3nc(N)c(C(=O)N[C@@H]4CCNC4=O)c3n2)cc2c1C(=O)N([C@@H](C)C1CC1)C2` [Example 283], the IC50 is under 100 nM at PI3Kγ (p120γ) (Table 2, p120γ) and 100 to 1000 nM at PI3Kγ (setting [1]).

`C[C@@H](C1CC1)N1Cc2cc(-c3ccn4nc(N)c(C(=O)Nc5ccccc5)c4n3)cc(OC(F)(F)F)c2C1=O` [Example 427]: the IC50 on PI3Kγ (p120γ) (Table 6, p120γ) was under 100 nM; at PI3Kγ (setting [3]) it was over 1000 nM.

As for `Cc1cc(-c2ccn3nc(N)c(C(=O)Nc4cccc(C(=O)O)c4)c3n2)cc2c1C(=O)N([C@@H](C)C1CC1)C2` [Example 15, m-[(5-{2-[(S)-1-Cyclopropylethyl]-7-methyl-5-isoindolinoyl}-2-amino-1,4,7a-triaza-3-indenyl)carbonylamino]benzoic acid], the IC50 at PI3Kγ (p120γ) (Table 1, p120γ) is under 100 nM; on PI3Kγ (setting [2]) it was under 100 nM.

Turning to `C[C@@H](C1CC1)N1Cc2cc(-c3ccn4nc(N)c(C(=O)NCCCS(C)(=O)=O)c4n3)cc(C(F)(F)F)c2C1=O` [Example 336], the IC50 on PI3Kγ (p120γ) (Table 3, p120γ) was under 100 nM; at PI3Kγ (setting [4]), 100 to 1000 nM.

`C[C@@H](C1CC1)N1Cc2cc(-c3ccn4nc(N)c(C(=O)NC5COC5)c4n3)cc(OC(F)(F)F)c2C1=O` [Example 21, 2-Amino-5-{2-[(1S)-1-cyclopropylethyl]-1-oxo-7-(trifluoromethoxy)-2,3-dihydro-1H-isoindol-5-yl}-N-(oxetan-3-yl)pyrazolo[1,5-a]pyrimidine-3-carboxamide]: the IC50 is under 100 nM at PI3Kγ (p120γ) (Table 1, p120γ) and under 100 nM on PI3Kγ (setting [2]).

`CC(C)[C@H](CO)NC(=O)c1c(N)nn2ccc(-c3cc4c(c(OC(F)(F)F)c3)C(=O)N([C@@H](C)C3CC3)C4)nc12` [Example 25, 2-Amino-5-{2-[(1S)-1-cyclopropylethyl]-1-oxo-7-(trifluoromethoxy)-2,3-dihydro-1H-isoindol-5-yl}-N-[(2R)-1-hydroxy-3-methylbutan-2-yl]pyrazolo[1,5-a]pyrimidine-3-carboxamide]: the IC50 on PI3Kγ (p120γ) (Table 1, p120γ) was under 100 nM; on PI3Kγ (setting [2]), under 100 nM.

For the compound `C[C@@H](C1CC1)N1Cc2cc(-c3ccn4nc(N)c(C(=O)Nc5cccnc5)c4n3)cc(C3CC3)c2C1=O` [Example 452], the IC50 at PI3Kγ (p120γ) (Table 6, p120γ) was under 100 nM; on PI3Kγ (setting [3]), 100 to 1000 nM.

In the case of `C[C@@H](C1CC1)N1Cc2cc(-c3ccn4nc(N)c(C(=O)N[C@H]5CC[C@H](C(C)(C)O)CC5)c4n3)cc(C(F)(F)F)c2C1=O` [Example 61, 2-Amino-5-(2-((S)-1-cyclopropylethyl)-1-oxo-7-(trifluoromethyl)isoindolin-5-yl)-N-(trans-4-(2-hydroxypropan-2-yl)cyclohexyl)pyrazolo[1,5-a]pyrimidine-3-carboxamide], the half-inhibitory concentration (IC50) on PI3Kγ (p120γ) (Table 1, p120γ) is under 100 nM; on PI3Kγ (setting [2]) it was under 100 nM.

On to `C[C@@H](C1CC1)N1Cc2cc(-c3ccn4nc(N)c(C(=O)N[C@H]5CC[C@H](C(=O)O)CC5)c4n3)cc(OC(F)(F)F)c2C1=O` [Example 411], for which the IC50 on PI3Kγ (p120γ) (Table 6, p120γ) is under 100 nM; on PI3Kγ (setting [3]), 100 to 1000 nM.

With `C[C@@H](C1CC1)N1Cc2cc(-c3ccn4nc(N)c(C(=O)Nc5ccc(C(C)(C)O)nc5)c4n3)cc(NS(C)(=O)=O)c2C1=O` [Example 103, 2-Amino-5-{2-[(1S)-1-cyclopropylethyl]-7-methanesulfonamido-1-oxo-2,3-dihydro-1H-isoindol-5-yl}-N-[6-(2-hydroxypropan-2-yl)pyridin-3-yl]pyrazolo[1,5-a]pyrimidine-3-carboxamide], the IC50 on PI3Kγ (p120γ) (Table 1, p120γ) was under 100 nM; at PI3Kγ (setting [2]), under 100 nM.

On to `C[C@@H](C1CC1)N1Cc2cc(-c3ccn4nc(N)c(C(=O)N[C@@H]5CCC[C@H](N)C5)c4n3)cc(OC(F)(F)F)c2C1=O` [Example 33, 2-Amino-N-[(1R,3S)-3-aminocyclohexyl]-5-{2-[(1S)-1-cyclopropylethyl]-1-oxo-7-(trifluoromethoxy)-2,3-dihydro-1H-isoindol-5-yl}pyrazolo[1,5-a]pyrimidine-3-carboxamide], for which the IC50 was under 100 nM at PI3Kγ (p120γ) (Table 1, p120γ) and under 100 nM at PI3Kγ (setting [2]).

For the compound `Cc1cc(-c2ccn3nc(N)c(C(=O)NC(C)C4COC4)c3n2)cc2c1C(=O)N([C@@H](C)C1CC1)C2` (some centres unmarked) [Example 287], the IC50 at PI3Kγ (p120γ) (Table 2, p120γ) was in the range of 100 to 1000 nM; at PI3Kγ (setting [1]), 100 to 1000 nM.

For the compound `CC(C)[C@H](CO)NC(=O)c1c(N)nn2ccc(-c3cc4c(c(NS(C)(=O)=O)c3)C(=O)N([C@@H](C)C3CC3)C4)nc12` [Example 96, 2-Amino-5-{2-[(1S)-1-cyclopropylethyl]-7-methanesulfonamido-1-oxo-2,3-dihydro-1H-isoindol-5-yl}-N-[(2R)-1-hydroxy-3-methylbutan-2-yl]pyrazolo[1,5-a]pyrimidine-3-carboxamide], the IC50 on PI3Kγ (p120γ) (Table 1, p120γ) was under 100 nM; on PI3Kγ (setting [2]), under 100 nM.

Regarding `C[C@@H](C1CC1)N1Cc2cc(-c3ccn4nc(N)c(C(=O)N[C@@H](CO)C(F)(F)F)c4n3)cc(NS(C)(=O)=O)c2C1=O` [Example 376], the figures for the IC50 at PI3Kγ (p120γ) and at PI3Kγ (setting [5]) were under 100 nM and 100 to 1000 nM, respectively.

Turning to `C[C@H](N1Cc2cc(-c3ccn4nc(N)c(C(=O)NC5CC5)c4n3)cc(N3CC[C@@H](O)C3)c2C1=O)C(F)(F)F` [Example 431], the IC50 at PI3Kγ (p120γ) (Table 6, p120γ) was under 100 nM; on PI3Kγ (setting [3]), 100 to 1000 nM.

Regarding `Cc1cc(-c2ccn3nc(N)c(C(=O)N4CC(O)C4)c3n2)cc2c1C(=O)N(C(C)C1CC1)C2` (centres unmarked) [Example 251], the IC50 on PI3Kγ (p120γ) (Table 2, p120γ) is under 100 nM; at PI3Kγ (setting [1]), 100 to 1000 nM.

`C[C@@H](C1CC1)N1Cc2cc(-c3ccn4nc(N)c(C(=O)Nc5ccc(CC(F)(F)F)nc5)c4n3)cc(C(F)(F)F)c2C1=O` [Example 354]: the IC50 on PI3Kγ (p120γ) (Table 3, p120γ) is under 100 nM; on PI3Kγ (setting [4]) it was 100 to 1000 nM.

Regarding `C[C@@H](C1CC1)N1Cc2cc(-c3ccn4nc(N)c(C(=O)N[C@H]5C[C@](C)(O)C5)c4n3)cc(OC(F)F)c2C1=O` [Example 430], the IC50 on PI3Kγ (p120γ) (Table 6, p120γ) was under 100 nM; at PI3Kγ (setting [3]) it was under 100 nM.

For `C[C@@H](C1CC1)N1Cc2cc(-c3ccn4nc(N)c(C(=O)N[C@@H]5CNC[C@H]5O)c4n3)cc(C(F)(F)F)c2C1=O` [Example 360], the IC50 at PI3Kγ (p120γ) (Table 3, p120γ) is under 100 nM; on PI3Kγ (setting [4]), over 1000 nM.

With `CCc1cc(-c2ccn3nc(N)c(C(=O)N[C@@H](CO)C4CC4)c3n2)cc2c1C(=O)N([C@@H](C)C1CC1)C2` [Example 168, 2-Amino-N-[(1R)-1-cyclopropyl-2-hydroxyethyl]-5-{2-[(1S)-1-cyclopropylethyl]-7-ethyl-1-oxo-2,3-dihydro-1H-isoindol-5-yl}pyrazolo[1,5-a]pyrimidine-3-carboxamide], the IC50 at PI3Kγ (p120γ) (Table 1, p120γ) is under 100 nM; at PI3Kγ (setting [2]), under 100 nM.

Turning to `C[C@@H](C1CC1)N1Cc2cc(-c3ccn4nc(N)c(C(=O)NC5CC5(C)C)c4n3)cc(NS(C)(=O)=O)c2C1=O` (some centres unmarked) [Example 394], the IC50 on PI3Kγ (p120γ) was under 100 nM; on PI3Kγ (setting [5]), 100 to 1000 nM.

Turning to `CNS(=O)(=O)c1cc(-c2ccn3nc(N)c(C(=O)N[C@H]4C[C@H](O)C4)c3n2)cc2c1C(=O)N([C@@H](C)C1CC1)C2` [Example 141, 2-Amino-5-{2-[(1S)-1-cyclopropylethyl]-7-(methylsulfamoyl)-1-oxo-2,3-dihydro-1H-isoindol-5-yl}-N-[trans-3-hydroxycyclobutyl]pyrazolo[1,5-a]pyrimidine-3-carboxamide], the IC50 at PI3Kγ (p120γ) (Table 1, p120γ) was under 100 nM; on PI3Kγ (setting [2]), under 100 nM.

For the compound `C[C@H](N1Cc2cc(-c3ccn4nc(N)c(C(=O)N[C@@H](CO)C5CC5)c4n3)cc(NS(C)(=O)=O)c2C1=O)C(F)(F)F` [Example 120, 2-Amino-N-((R)-1-cyclopropyl-2-hydroxyethyl)-5-(7-(methylsulfonamido)-1-oxo-2-((S)-1,1,1-trifluoropropan-2-yl)isoindolin-5-yl)pyrazolo[1,5-a]pyrimidine-3-carboxamide], the IC50 at PI3Kγ (p120γ) (Table 1, p120γ) is under 100 nM; at PI3Kγ (setting [2]), under 100 nM.

`Cc1cc(NC(=O)c2c(N)nn3ccc(-c4cc5c(c(NS(C)(=O)=O)c4)C(=O)N([C@@H](C)C4CC4)C5)nc23)cc(C)n1` [Example 102, (S)-2-Amino-5-(2-(1-cyclopropylethyl)-7-(methylsulfonamido)-1-oxoisoindolin-5-yl)-N-(2,6-dimethylpyridin-4-yl)pyrazolo[1,5-a]pyrimidine-3-carboxamide]: the IC50 at PI3Kγ (p120γ) (Table 1, p120γ) was under 100 nM; on PI3Kγ (setting [2]), under 100 nM.

For the compound `CC[C@H](N1Cc2cc(-c3ccn4nc(N)c(C(=O)N[C@H](C)CO)c4n3)cc(Cl)c2C1=O)C(F)(F)F` [Example 164, 2-Amino-5-{7-chloro-1-oxo-2-[(2S)-1,1,1-trifluorobutan-2-yl]-2,3-dihydro-1H-isoindol-5-yl}-N-[(2R)-1-hydroxypropan-2-yl]pyrazolo[1,5-a]pyrimidine-3-carboxamide], the IC50 at PI3Kγ (p120γ) (Table 1, p120γ) was under 100 nM; on PI3Kγ (setting [2]), under 100 nM.

`C[C@@H](C1CC1)N1Cc2cc(-c3ccn4nc(N)c(C(=O)Nc5ccccc5)c4n3)cc(C(F)(F)F)c2C1=O` [Example 363]: the IC50 was under 100 nM at PI3Kγ (p120γ) (Table 3, p120γ) and over 1000 nM on PI3Kγ (setting [4]).
